Test results as given in publication PMC8412142 (Journal of medicinal chemistry, 2021).

What was measured:
[1] = Human liver microsome intrinsic clearance; settings: human liver microsomes
MRC5 cells = assay: MRC5 cell toxicity; type: cell-based; settings: in words
[2] = In vivo pharmacokinetics of 29d, 10 mg/kg ip; set-up: species or system BALB/c mice
Caco-2 = Caco-2 permeability and efflux assay; type: in vitro ADME
Mouse plasma stability = type: in vitro ADME; settings: in words

Compound	HLM Clint [1]	toxicity in mammalian cells (MRC5 cells)	other results
3-(5-(Piperidin-1-yl)-1H-pyrrolo[2,3-b]pyridin-3-yl)benzonitrile [24c]	44 μg/min/mg protein		
5-(1-methyl-1H-pyrazol-4-yl)-3-(4-(trifluoromethyl)phenyl)-1H-pyrrolo[2,3-b]pyridine [13i]	66 μg/min/mg protein		
Cn1cc(-c2cnc3[nH]cc(-c4cccc([N+](=O)[O-])c4)c3c2)cn1 [13t, 5-(1-Methyl-1H-pyrazol-4-yl)-3-(3-nitrophenyl)-1H-pyrrolo[2,3-b]pyridine]		showed signs of toxicity in mammalian cells	
Cn1cc(-c2cnc3[nH]cc(-c4ccc(O)cc4)c3c2)cn1 [13u, 4-(5-(1-Methyl-1H-pyrazol-4-yl)-1H-pyrrolo[2,3-b]pyridin-3-yl)phenol]		showed signs of toxicity in mammalian cells	
N#Cc1cccc(-c2c[nH]c3ncc(-c4cnn(C5CCNCC5)c4)cc23)c1 [29d]		non-toxic in MRC5 cells	brain penetration [2]: not appreciably brain-penetrant; Mean brain concentration ([2]; sparse sampling, 0.5 h, LLOQ = 9.77 ng/mL): <LLOQ; Caco-2 efflux / transporter substrate (Caco-2): likely a substrate for P-gp; Caco-2 permeability (Caco-2): low permeability; stability in mouse plasma (Mouse plasma stability): stable in mouse plasma
